Data on nine compounds can be found in patent US20260374773A1, “MULTI-CYCLIC IRAK AND FLT3 INHIBITING COMPOUNDS AND USES THEREOF” (CHILDREN'S HOSPITAL MEDICAL CENTER, priority 2022, published 2026).

Common to all, as to type: cell-based
Assay [1] deals with NF-κB. Briefly: NF-κB SEAP reporter assay in THP-1-Blue NF-κB cells, Pam3CSK4 stimulated. Particulars: THP-1-Blue cells, 1 ng/ml Pam3CSK4, 24 h, read-out: NF-κB Pam3SCK4 IC50. As for the experimental part: (§1) THP-1-Blue NF-κB cells (InvivoGen) carrying a stable integrated NF-κB-inducible secreted embryonic alkaline phosphatase (SEAP) reporter construct were plated at a concentration of 1×10^5 cells per well. The cells were stimulated with Pam3CSK4 (1 ng/ml) or hIL1B (1 ng/ml). After 10-20 minutes, the cells were then treated with vehicle (DMSO) or serial dilutions of the test compounds (10 doses tested for each test compound, with a […] starting at 1 μM or 3 μM) with a final volume of 200 μL for 24 hours at 37 °C. After 24 hours, the cells were centrifuged and 20 μL supernatant was incubated with 180 μL QUANTI-Blue reagent at 37 °C for 30-60 minutes. The levels of NF-κB-induced was measured in a microplate reader at 620 nm.
as §1, with “1 mM” for “1 μM”, “3 mM)” for “3 μM)”, “200 mL” for “200 μL”, “20 mL” for “20 μL”, “180 mL” for “180 μL”, “NF-κB-induced gene expression were” for “NF-κB-induced was”

Assay [2] relates to NF-κB. Briefly: NF-κB SEAP reporter assay in THP-1-Blue NF-κB cells, hIL1B stimulated. As to conditions: THP-1-Blue cells, 1 ng/ml hIL1B, 24 h, read-out: NF-κB IL1B IC50. As for the experimental part:
as §1
as §1, with “1 mM” for “1 μM”, “3 mM)” for “3 μM)”, “200 mL” for “200 μL”, “20 mL” for “20 μL”, “180 mL” for “180 μL”, “NF-κB-induced gene expression were” for “NF-κB-induced was”
In general terms: In a reporter assay the amount or activity of a reporter protein is the signal.

For a further assay, the target named is T1, IRAK4 (Homo sapiens, UniProt Q9NWZ3).
T1 sequence (Q9NWZ3 1-460): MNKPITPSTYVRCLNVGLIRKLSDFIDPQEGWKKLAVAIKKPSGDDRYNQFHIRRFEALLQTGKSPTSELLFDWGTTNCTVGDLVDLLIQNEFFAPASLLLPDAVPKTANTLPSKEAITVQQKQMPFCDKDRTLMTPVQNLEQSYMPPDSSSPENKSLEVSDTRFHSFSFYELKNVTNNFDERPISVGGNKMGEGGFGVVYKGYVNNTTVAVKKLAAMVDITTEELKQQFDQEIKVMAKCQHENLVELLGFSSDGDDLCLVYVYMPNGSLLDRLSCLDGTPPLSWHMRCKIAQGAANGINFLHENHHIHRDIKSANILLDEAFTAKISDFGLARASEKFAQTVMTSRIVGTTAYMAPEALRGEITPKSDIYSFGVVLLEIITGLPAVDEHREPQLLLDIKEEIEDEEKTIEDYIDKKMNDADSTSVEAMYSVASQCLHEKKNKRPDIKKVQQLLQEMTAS
Briefly: NanoBRET target engagement assay in HEK-293 cells, IRAK4. As to conditions: live HEK-293 cells, 1 h. The source says: The NanoBRET assay measures kinase engagement in real time in the context of the intact cell. Unlike the previously described biochemical kinase assay methodology, the NanoBRET assay measures the binding and activity characteristics under equilibrium conditions using full-length kinases in the presence of cellular concentrations of ATP in live, uncompromised cells. As such, the assay provides a more relevant assessment of kinase potency and selectivity that would be expected to be observed in the native cellular environment, where potency is often considerably lower than that observed in the isolated biochemical assays (Vasta, J. D. et al., (2018) Cell Chem. Biol. 25, 206-214). The assay uses a Kinase-NanoLuc® fusion vector expressing a kinase protein to which a luciferase tag has been added, a cell-permeant fluorescent NanoBRET™ tracer, a NanoLuc® substrate, and an extracellular NanoLuc® inhibitor. Upon expression of the luciferase-tagged kinase, cells will produce a strong BRET signal only in the presence of the NanoBRET™ tracer. The extracellular NanoLuc® inhibitor ensures that the BRET signal observed emanates only from live cells. Because the BRET signal has tight distance constraints, addition of the test compound will decrease the BRET signal if the compound competes with the NanoBRET™ tracer for binding to the kinase domain. Under the appropriate tracer conditions established by the manufacturer, quantitative intracellular affinity and relative potency can then be determined using Mass Action model equations.
HEK-293 cells were purchased from ATCC. FuGENEHD Transfection Reagent, Kinase-NanoLucfusion plasmids, Transfection Carrier DNA, NanoBRETTracers and dilution buffer, NanoBRETNano-Glo Substrate, Extracellular NanoLucInhibitor were obtained from Promega.
Assays were conducted following Promega assay protocol with some modifications. HEK-293 Cells were transiently transfected with Kinase-NanoLucFusion Vector DNA by FuGENEHD Transfection Reagent. Testing compounds were delivered into 384 well assay plate by Echo 550 (LabcyteInc, Sunnyvale, CA). Transfected cells were harvested and mixed with NanoBRETTracer Reagent and dispensed into 384 well plates and incubated at 37 °C in 5% CO2 cell culture incubator for 1 hour. The NanoBRETNano-Glo Substrate plus Extracellular NanoLucInhibitor Solution were added into the wells of the assay plate and incubated for 2-3 minutes at room temperature. The donor emission wavelength (460 nm) and acceptor emission wavelength (600 nm) were measured in the En Visionplate reader. The BRET Ratios were calculated.
BRET Ratio=[(Acceptor sample÷Donor sample)−(Acceptor no-tracer control÷Donor no-tracer control)].
The IC50 values of compounds were calculated with Prism GraphPad program.
• 1). Cultivate HEK-293 cells (70-80% confluence) appropriately prior to assay. Trypsinize and collect HEK-293 cells. • 2). Prepare lipid:DNA complexes as follows: • a. Prepare a 10 μg/ml solution of DNA in Opti-MEM without serum that consists of the following ratios of carrier DNA and DNA encoding NanoLuc® fusion. 9.0 μg/mL of Transfection Carrier DNA, 1.0 μg/mL of NanoLuc fusion vector DNA and 1 mL of Opti-MEM without phenol red. Mix thoroughly. • b. Add 30 μl of FuGENE HD Transfection Reagent into each milliliter of DNA mixture to form lipid:DNA complex. • c. Mix by inversion 10 times. • d. Incubate at ambient temperature for 20 minutes to allow complexes to form. • 3). In a sterile, conical tube, mix 1 part of lipid:DNA complex with 20 parts of HEK-293 cells in suspension. Mix gently by inversion 5 times. • 4). Dispense cells+lipid:DNA complex into a sterile tissue culture dish and incubate for 22-24 hours.
Each test compound is delivered from the compound source plate to the wells of 384-well white NBS plate by Echo 550.
3. Preparation of Cells with NanoBRET™ Tracer Reagent • 1). Remove medium from dish with transfected HEK-293 cells via aspiration, trypsinize and allow cells to dissociate from the dish. • 2). […]
In general terms: In BRET a luciferase serves as donor, and the signal depends on an acceptor being close.

SMILES strings stand for the structures.

A word on the IC50: it is the concentration that inhibits the measured activity by half.

On to `COc1cn2ncc(-c3cncc(N[C@@H]4CCCNC4)n3)c2nc1C1CC1` [Compound 11a, (R)-6-(5-cyclopropyl-6-methoxypyrazolo[1,5-a]pyrimidin-3-yl)-N-(piperidin-3-yl)pyrazin-2-amine], for which the IC50 in the assay with NF-κB [1] (Table 21) was 331 nM; in the assay with NF-κB [2] (Table 21), 244 nM; at IRAK4 (Table 20) it was less than 0.5 nM.

Take `COc1cn2ncc(-c3nc(N[C@H]4CNC[C@@H]4F)c(F)cc3F)c2nc1C(C)(C)O` [Compound 12, 2-(3-(3,5-difluoro-6-(((3S,4S)-4-fluoropyrrolidin-3-yl)amino)pyridin-2-yl)-6-methoxypyrazolo[1,5-a]pyrimidin-5-yl)propan-2-ol]: the IC50 was 42 nM in the assay on NF-κB [1] (Table 15), 41 nM in the assay with NF-κB [2] (Table 15) and less than 0.5 nM against IRAK4 (Table 14).

Consider `COc1cn2ncc(-c3cncc(N[C@H]4CNCC[C@@H]4F)n3)c2nc1C1CC1` [Compound 12a, 6-(5-cyclopropyl-6-methoxypyrazolo[1,5-a]pyrimidin-3-yl)-N-((3S,4S)-4-fluoropiperidin-3-yl)pyrazin-2-amine], for which the figures for the IC50 in the assay on NF-κB [1] (Table 21), in the assay on NF-κB [2] (Table 21) and on IRAK4 (Table 20) were 83 nM, 55 nM and less than 0.5 nM, respectively.

As for `COc1cn2ncc(-c3nc(N[C@H]4CNCC[C@@H]4F)c(F)cc3F)c2nc1C(C)(C)O` [Compound 13, 2-(3-(3,5-difluoro-6-(((3S,4S)-4-fluoropiperidin-3-yl)amino)pyridin-2-yl)-6-methoxypyrazolo[1,5-a]pyrimidin-5-yl)propan-2-ol], the IC50 is 99 nM in the assay with NF-κB [1] (Table 15), 73 nM in the assay with NF-κB [2] (Table 15) and less than 0.5 nM on IRAK4 (Table 14).

Take `COc1cn2ncc(-c3nc(N[C@H]4CNC[C@@H]4F)ncc3F)c2nc1C1CC1` [Compound 13a, 4-(5-cyclopropyl-6-methoxypyrazolo[1,5-a]pyrimidin-3-yl)-5-fluoro-N-((3S,4S)-4-fluoropyrrolidin-3-yl)pyrimidin-2-amine]: the IC50 is 19 nM in the assay on NF-κB [1] (Table 21), 27 nM in the assay with NF-κB [2] (Table 21) and less than 0.5 nM against IRAK4 (Table 20).

As for `COc1cn2ncc(-c3nc(N[C@@H]4CCCNC4)ncc3F)c2nc1C1CC1` [Compound 14a, (R)-4-(5-cyclopropyl-6-methoxypyrazolo[1,5-a]pyrimidin-3-yl)-5-fluoro-N-(piperidin-3-yl)pyrimidin-2-amine], the IC50 is 15 nM in the assay with NF-κB [1] (Table 21), 22 nM with NF-κB [2] (Table 21) and less than 0.5 nM on IRAK4 (Table 20).

Regarding `COc1cn2ncc(-c3nc(N[C@H]4CNCC[C@@H]4F)ncc3F)c2nc1C1CC1` [Compound 15a, 4-(5-cyclopropyl-6-methoxypyrazolo[1,5-a]pyrimidin-3-yl)-5-fluoro-N-((3S,4S)-4-fluoropiperidin-3-yl)pyrimidin-2-amine], the IC50 was 5 nM in the assay on NF-κB [1] (Table 21), 8 nM with NF-κB [2] (Table 21) and less than 0.5 nM against IRAK4 (Table 20).

As for `COc1cn2ncc(-c3cccc(N[C@H]4CNCC[C@@H]4F)n3)c2nc1C1CC1` [Compound 21, 6-(5-cyclopropyl-6-methoxypyrazolo[1,5-a]pyrimidin-3-yl)-N-((3S,4S)-4-fluoropiperidin-3-yl)pyridin-2-amine], the IC50 with NF-κB [1] (Table 15) is 362 nM; in the assay on NF-κB [2] (Table 15), 342 nM; at IRAK4 (Table 14) it was less than 0.5 nM.

Regarding `COc1cn2ncc(-c3nc(N[C@H]4CNCC[C@@H]4F)c(F)cc3F)c2nc1C1CC1` [Compound 22, 6-(5-cyclopropyl-6-methoxypyrazolo[1,5-a]pyrimidin-3-yl)-3,5-difluoro-N-((3S,4S)-4-fluoropiperidin-3-yl)pyridin-2-amine], the IC50 in the assay with NF-κB [1] (Table 15) is 7 nM; in the assay with NF-κB [2] (Table 15), 19 nM; on IRAK4 (Table 14), less than 0.5 nM.
